Measured values reported in US12478629B2, “Use of glucocorticoids for the treatment of epithelial microbial infections of a fluid containing organ with a natural exterior orifice in mammals” (VIRBAC, priority 2018, dated 2025).

Tested on: mild clinical mastitis
Experiment: Multicenter clinical field study, intramammary treatment of mild clinical mastitis
Type: in vivo, lactating cows and heifers
Description: The purpose of this multicenter clinical field study is to evaluate the efficacy and the safety of HCA at a dosage of 20 mg in 10 ml of Vaseline oil based formulation every 12±2 h hours (minimum of one and maximum of four treatments) in the intramammary treatment of mild clinical mastitis in lactating cows; more specifically to assess the efficacy (clinical cure rate) of HCA alone in the treatment of udder inflammation (mild clinical mastitis), under field conditions and to assess the safety and the risk of aggravation or relapses during and after the treatment with HCA alone.
Animals (50 lactating cows and heifers presenting clinical symptoms of mastitis) have been intramammarily treated with one syringe (10 mL) containing 20 mg of HCA at each time point for a minimum of 1 and a maximum of 4 treatments in a 12±2 h interval (each morning or evening milking time, respectively). Depending on the result of the clinical examination and the clinical status classification, the animal has been treated until the animal was classified as clinically cured, failure or the maximum of 4 treatments is reached.
Before the tested treatment, a sample of milk of each animal has been collected to be tested for bacteriology of classical pathogenic bacteria; among the 50 animals, 34 produced a milk containing pathogenic bacteria, no pathogenic bacteria has been detected in the milk of the 16 remaining animals, it can nevertheless not be excluded that those 16 animals were infected by a non-tested pathogenic bacteria.

CCC(=O)O[C@]1(C(=O)COC(C)=O)CC[C@H]2[C@@H]3CCC4=CC(=O)CC[C@]4(C)[C@H]3[C@@H](O)C[C@@]21C [HCA, hydrocortisone 21-acetate 17α-propionate]
animals cured (clinical cure rate) (16 animals bacteriologically negative at DO): 56.3% | animals cured (clinical cure rate) (34 animals bacteriologically positive at DO): 20.6% | animals cured (clinical cure rate) (all 50 animals, 20 mg HCA in 10 mL intramammary every 12±2 h, after 3 or 4 administrations): 32% | adverse effect of the treatment / tolerance (intramammary, 20 mg in 10 mL, 1 to 4 treatments): No adverse effect
